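These data come from cells grown in 96-well plates and exposed to compound for 48 hours at five concentrations. At the GI50, growth is halved. TGI marks complete inhibition of growth.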
Assays:
Experiment in all cases: DTP human tumour cell line panel, 48 h
RXF 393 renal = system: RXF 393 renal
HOP-62 NSCLC = system: HOP-62 NSCLC
LOX IMVI melanoma = system: LOX IMVI melanoma
UACC-62 melanoma = system: UACC-62 melanoma
NCI-H522 lung = system: NCI-H522 lung
SNB-75 CNS = system: SNB-75 CNS
NCI-H226 lung = system: NCI-H226 lung
OVCAR-3 ovarian = system: OVCAR-3 ovarian
HCC-2998 colon = system: HCC-2998 colon
CAKI-1 renal = system: CAKI-1 renal
NCI-H23 lung = system: NCI-H23 lung
KM12 colon = system: KM12 colon
SK-MEL-28 melanoma = system: SK-MEL-28 melanoma
SK-MEL-5 melanoma = system: SK-MEL-5 melanoma
MOLT-4 leukemia = system: MOLT-4 leukemia
HL-60(TB) leukemia = system: HL-60(TB) leukemia
CCRF-CEM leukemia = system: CCRF-CEM leukemia
T-47D breast = system: T-47D breast
IGROV1 ovarian = system: IGROV1 ovarian
EKVX NSCLC = system: EKVX NSCLC
MDA-MB-435 = system: MDA-MB-435
MDA-MB-231 breast = system: MDA-MB-231 breast
HCT-15 colon = system: HCT-15 colon
SR leukemia = system: SR leukemia
OVCAR-8 ovarian = system: OVCAR-8 ovarian
U251 CNS = system: U251 CNS
RPMI-8226 leukemia = system: RPMI-8226 leukemia
NCI/ADR-RES ovarian = system: NCI/ADR-RES ovarian
PC-3 prostate = system: PC-3 prostate

`C=C1C(=O)O[C@H]2[C@H]1CC/C(COC(=O)CSCC(=O)OC/C1=C/CC[C@@]3(C)O[C@H]3[C@H]3OC(=O)C(=C)[C@@H]3CC1)=C\CC[C@@]1(C)O[C@@H]21` showed a TGI (RXF 393 renal) of 1520 nM, a GI50 (HOP-62 NSCLC) of 5250 nM and a TGI (HOP-62 NSCLC) of 20200 nM. For the same compound, the GI50 (LOX IMVI melanoma) was 1580 nM, the TGI (LOX IMVI melanoma) was 3100 nM and the GI50 (UACC-62 melanoma) was 1690 nM. It also gave a TGI (UACC-62 melanoma) of 3950 nM, a GI50 (NCI-H522 lung) of 1080 nM and a TGI (NCI-H522 lung) of 2490 nM. For the same compound, the GI50 (SNB-75 CNS) was 3130 nM, the TGI (SNB-75 CNS) was 10500 nM and the GI50 (NCI-H226 lung) was 2280 nM. The TGI (NCI-H226 lung) was 6590 nM, the GI50 (OVCAR-3 ovarian) was 832 nM and the TGI (OVCAR-3 ovarian) was 2120 nM. For the same compound, the GI50 (HCC-2998 colon) was 2120 nM, the TGI (HCC-2998 colon) was 4560 nM and the GI50 (CAKI-1 renal) was 1570 nM. The TGI (CAKI-1 renal) was 3000 nM, the GI50 (NCI-H23 lung) was 2260 nM and the TGI (NCI-H23 lung) was 7070 nM. It also gave a GI50 (KM12 colon) of 2590 nM, a TGI (KM12 colon) of 8750 nM and a GI50 (SK-MEL-28 melanoma) of 1550 nM. For the same compound, the TGI (SK-MEL-28 melanoma) was 3610 nM, the GI50 (SK-MEL-5 melanoma) was 1730 nM and the TGI (SK-MEL-5 melanoma) was 3770 nM. For the same compound, the GI50 (MOLT-4 leukemia) was 514 nM, the TGI (MOLT-4 leukemia) was 2810 nM and the GI50 (HL-60(TB) leukemia) was 432 nM. For the same compound, the TGI (HL-60(TB) leukemia) was 2070 nM, the GI50 (CCRF-CEM leukemia) was 268 nM and the TGI (CCRF-CEM leukemia) was 1250 nM. It also gave a GI50 (T-47D breast) of 2160 nM, a TGI (T-47D breast) of 5720 nM and a GI50 (IGROV1 ovarian) of 1470 nM. For the same compound, the TGI (IGROV1 ovarian) was 4020 nM, the GI50 (EKVX NSCLC) was 1820 nM and the TGI (EKVX NSCLC) was 4120 nM. For the same compound, the GI50 (MDA-MB-435) was 1690 nM, the TGI (MDA-MB-435) was 3920 nM and the GI50 (MDA-MB-231 breast) was 1630 nM. It also gave a TGI (MDA-MB-231 breast) of 3340 nM, a GI50 (HCT-15 colon) of 1250 nM and a TGI (HCT-15 colon) of 2690 nM. It also gave a GI50 (SR leukemia) of 282 nM, a TGI (SR leukemia) of 2150 nM and a GI50 (OVCAR-8 ovarian) of 1480 nM. For the same compound, the TGI (OVCAR-8 ovarian) was 4210 nM, the GI50 (U251 CNS) was 3190 nM and the TGI (U251 CNS) was 11300 nM. It also gave a GI50 (RPMI-8226 leukemia) of 1450 nM, a TGI (RPMI-8226 leukemia) of 4010 nM and a GI50 (NCI/ADR-RES ovarian) of 12000 nM. For the same compound, the TGI (NCI/ADR-RES ovarian) was 40200 nM, the GI50 (PC-3 prostate) was 2210 nM and the TGI (PC-3 prostate) was 6920 nM.

Reference: PubChem BioAssay (NCI)
